This note sets out measurements from US12226405B2, “Compounds and compositions for inhibiting the activity of HIF2-alpha and their methods of use” (Novartis AG, priority 2020, dated 2025).

The structures appear in SMILES notation.

Assay [1] has as its system HIF2α-regulated expression of the endogenous target gene hEGLN3 in 786-O cells. The experiment in a line: Cellular iScript assay for HIF2α (quantitative RT-PCR of hEGLN3). The following applies: Homo sapiens, 786-0, 48 hours incubation. The class given is cell-based, human. The essentials: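 786-O cells were exposed to eleven 2-fold compound dilutions for 48 h at 37° C. Lysates underwent one-step TaqMan qRT-PCR for hEGLN3 with beta-actin as reference; 2^(−ΔΔCt) versus DMSO, as % of control, was fit with a four-parameter model to give IC50.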

Assay [2] relates to HIF2α-dependent transcription in 786-O-HRE-Luc cells. The experiment in a line: In vitro cellular hypoxia response element (HRE) reporter gene assay (RGA) for HIF2α. The class given is cell-based, human. Conditions: Homo sapiens, 24 hours incubation. The essentials:
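Renal carcinoma cells carrying a 4×HRE-driven PEST-destabilised firefly luciferase were treated a day after seeding with eleven 2-fold compound dilutions (0.1% DMSO) for 24 h at 37° C. BrightGlo luminescence, background-subtracted and expressed as % of DMSO control, was fitted four-parametrically for IC50.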
For orientation: In a reporter assay the amount or activity of a reporter protein is the signal.

In assay [3] the target is HIF2α PAS-B domain (236-350, biotinylated on the N-terminus) (Homo sapiens (Human), UniProt Q99814).
Sequence of HIF2α PAS-B domain (236-350, biotinylated on the N-terminus) (Q99814 236-350): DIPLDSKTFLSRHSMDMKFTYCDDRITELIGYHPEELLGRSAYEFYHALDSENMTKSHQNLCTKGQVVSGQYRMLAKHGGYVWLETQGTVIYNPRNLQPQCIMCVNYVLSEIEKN
Procedure: The assay buffer contained 50 mM Tris-HCl pH7 (Sigma), 20 mM NaCl (Fluka), 0.02% BSA (Sigma), 0.005% Triton X-100 (Pierce) and 1 mM DTT (Fluka). After a 30 min incubation period, 5 μL Streptavidin PVT SPA Beads (Perkin Elmer) at 1.2 mg/mL, diluted in the buffer, were added.

One may read the IC50 as the concentration needed to halve the response being measured. On to `N#CC1=CN2C[C@@]3(CCc4c3ccc(Br)c4F)N=C2C(OC(F)F)=C1` [Example 4, (S)-5′-bromo-8-(difluoromethoxy)-4′-fluoro-2′,3′-dihydro-3H-spiro[imidazo[1,2-a]pyridine-2,1′-indene]-6-carbonitrile], for which the IC50 in assay [1] worked out at 0.155 µM; in assay [2], 0.699 µM; in assay [3], 0.009 µM.

On to `N#CC1=CN2C[C@@]3(CCCc4c3ccc(Br)c4F)N=C2C(OC(F)F)=C1` [Example 13, (S)-6′-bromo-8-(difluoromethoxy)-5′-fluoro-3′,4′-dihydro-2′H,3H-spiro[imidazo[1,2-a]pyridine-2,1′-naphthalene]-6-carbonitrile], for which the IC50 in assay [1] worked out at 0.042 µM; in assay [2], 0.113 µM; in assay [3], 0.005 µM.

In the case of `Fc1ccc2c(c1F)OC[C@H](F)[C@@]21CN2C=C(C(F)(F)F)C=C(OC(F)F)C2=N1` [Example 98, (3R,4S)-8′-(difluoromethoxy)-3,7,8-trifluoro-6′-(trifluoromethyl)-3′H-spiro[chromane-4,2′-imidazo[1,2-a]pyridine]], the IC50 in assay [1] came to 0.104 µM; in assay [2] it was 0.12 µM; in assay [3], 0.017 µM.

On to `FC(F)(F)C1=CN2C[C@@]3(CCOc4cc(C(F)(F)F)ccc43)N=C2C(Cl)=C1` [Example 53, (S)-8′-chloro-6′,7-bis(trifluoromethyl)-3′H-spiro[chroman-4,2′-imidazo[1,2-a]pyridine]], for which the IC50 in assay [1] was 0.184 µM; in assay [2], 0.839 µM; in assay [3] it was 0.014 µM.

As to `Fc1cccc2c1OC[C@H](F)[C@@]21CN2C=C(C(F)(F)F)C=C(OC(F)F)C2=N1` [Example 62, (2′S,3R)-8′-(difluoromethoxy)-3,8-difluoro-6′-(trifluoromethyl)-3′H-spiro[chroman-4,2′-imidazo[1,2-a]pyridine]], the values for the IC50 in assay [1], in assay [2] and in assay [3] were 0.102 µM, 0.484 µM and 0.013 µM, respectively.

Consider `Fc1c(Br)ccc2c1OC[C@@H](F)[C@@]21CN2C=C(C(F)(F)F)C=C(OC(F)F)C2=N1` [Example 58, (2′S,3S)-7-bromo-8′-(difluoromethoxy)-3,8-difluoro-6′-(trifluoromethyl)-3′H-spiro[chroman-4,2′-imidazo[1,2-a]pyridine]], for which the IC50 is 0.173 µM in assay [1], 0.183 µM in assay [2] and 0.008 µM in assay [3].

For `N#Cc1ccc2c(c1F)SCC[C@@]21CN2C=C(C(F)(F)F)C=C(OC(F)F)C2=N1` [Example 111, (S)-8-(difluoromethoxy)-8′-fluoro-6-(trifluoromethyl)-3H-spiro[imidazo[1,2-a]pyridine-2,4′-thiochromane]-7′-carbonitrile], the figures for the half-maximal inhibitory concentration (IC50) in assay [1], in assay [2] and in assay [3] were 0.043 µM, 0.1 µM and 0.009 µM, respectively.

For the compound `Fc1c(Br)ccc2c1OCC[C@@]21CN2C=C(C(F)(F)F)C=C(OC(F)F)C2=N1` [Example 39, (S)-7-bromo-8′-(difluoromethoxy)-8-fluoro-6′-(trifluoromethyl)-3′H-spiro[chroman-4,2′-imidazo[1,2-a]pyridine]], the results for the IC50 in assay [1], in assay [2] and in assay [3] were 0.049 µM, 0.251 µM and ≤ 0.006 µM, respectively.

Consider `FC1=CC(C(F)(F)F)=CN2C[C@@]3(CCCc4cc(C(F)(F)F)ccc43)N=C12` [Example 77, (S)-8-fluoro-6,6′-bis(trifluoromethyl)-3′,4′-dihydro-2′H,3H-spiro[imidazo[1,2-a]pyridine-2,1′-naphthalene]], for which the IC50 in assay [1] is 0.103 µM; in assay [2], 0.6 µM; in assay [3] it was ≤ 0.003 µM.

Regarding `Fc1c(OC(F)(F)F)ccc2c1OCC[C@@]21CN2C=C(C(F)(F)F)C=C(OC(F)F)C2=N1` [Example 105, (S)-8′-(difluoromethoxy)-8-fluoro-7-(trifluoromethoxy)-6′-(trifluoromethyl)-3′H-spiro[chromane-4,2′-imidazo[1,2-a]pyridine]], the results for the IC50 in assay [1], in assay [2] and in assay [3] were 0.183 µM, 0.248 µM and 0.021 µM, respectively.

In the case of `FC(F)OC1=CC(C(F)(F)F)=CN2C[C@@]3(CCOc4c3ccc(Br)c4Br)N=C12` [Example 102, (S)-7,8-dibromo-8′-(difluoromethoxy)-6′-(trifluoromethyl)-3′ H-spiro[chromane-4,2′-imidazo[1,2-a]pyridine]], the IC50 turned out to be 0.048 µM in assay [1], 0.066 µM in assay [2] and 0.011 µM in assay [3].

In the case of `Fc1c(Cl)ccc2c1COCC[C@@]21CN2C=C(C(F)(F)F)C=C(OC(F)F)C2=N1` [Example 119, (S)-8-chloro-8′-(difluoromethoxy)-9-fluoro-6′-(trifluoromethyl)-3,4-dihydro-1H,3′H-spiro[benzo[c]oxepine-5,2′-imidazo[1,2-a]pyridine]], the IC50 in assay [1] turned out to be 0.097 µM; in assay [2], 0.292 µM; in assay [3], 0.019 µM.

Consider `Fc1cccc2c1C(F)(F)CC[C@@]21CN2C=C(C(F)(F)F)C=C(OC(F)F)C2=N1` [Example 23, (S)-8-(difluoromethoxy)-4′,4′,5′-trifluoro-6-(trifluoromethyl)-3′,4′-dihydro-2′H,3H-spiro[imidazo[1,2-a]pyridine-2,1′-naphthalene]], for which the values for the IC50 in assay [1], in assay [2] and in assay [3] were 0.03 µM, 0.092 µM and 0.004 µM, respectively.

For the compound `FC(F)OC1=CC(C(F)(F)F)=CN2C[C@@]3(CCCc4cc(Br)ccc43)N=C12` [Example 11, (S)-6′-bromo-8-(difluoromethoxy)-6-(trifluoromethyl)-3′,4′-dihydro-2′H,3H-spiro[imidazo[1,2-a]pyridine-2,1′-naphthalene]], the results for the IC50 in assay [1], in assay [2] and in assay [3] were 0.033 µM, 0.089 µM and ≤ 0.003 µM, respectively.

With `FC(F)OC1=CC(C(F)(F)F)=CN2C[C@@]3(N=C12)c1ccc(Br)cc1OC[C@@H]3F` [Example 59, (2′S,3R)-7-bromo-8′-(difluoromethoxy)-3-fluoro-6′-(trifluoromethyl)-3′H-spiro[chroman-4,2′-imidazo[1,2-a]pyridine]], the figures for the IC50 in assay [1], in assay [2] and in assay [3] were 0.055 µM, 0.073 µM and 0.012 µM, respectively.

Take `O=C1c2c(ccc(Br)c2F)[C@]2(CN3C=C(C(F)(F)F)C=C(OC(F)F)C3=N2)CC1(F)F` [Example 17, (S)-6′-bromo-8-(difluoromethoxy)-3′,3′,5′-trifluoro-6-(trifluoromethyl)-2′H,3H-spiro[imidazo[1,2-a]pyridine-2,1′-naphthalen]-4′(3′H)-one]: the IC50 in assay [1] came out at 0.199 µM; in assay [2] it was 0.466 µM; in assay [3] it was 0.062 µM.

With `N#CC1=CN2C[C@@]3(CCOc4c3ccc(Br)c4F)N=C2C(OC(F)F)=C1` [Example 49, (S)-7-bromo-8′-(difluoromethoxy)-8-fluoro-3′H-spiro[chroman-4,2′-imidazo[1,2-a]pyridine]-6′-carbonitrile], the IC50 in assay [1] was 0.173 µM; in assay [2] it was 0.979 µM; in assay [3] it was 0.012 µM.

Consider `Fc1c(Br)ccc2c1CCC[C@@]21CN2C=C(C(F)(F)F)C=C(OC(F)F)C2=N1` [Example 7, (S)-6′-bromo-8-(difluoromethoxy)-5′-fluoro-6-(trifluoromethyl)-3′,4′-dihydro-2′H,3H-spiro[imidazo[1,2-a]pyridine-2,1′-naphthalene]], for which the values for the IC50 in assay [1], in assay [2] and in assay [3] were 0.032 µM, 0.082 µM and ≤ 0.003 µM, respectively.

On to `FC(F)OC1=CC(C(F)(F)F)=CN2C[C@@]3(CCOc4c3ccnc4Cl)N=C12` [Example 56, (S)-8′-chloro-8-(difluoromethoxy)-6-(trifluoromethyl)-2′,3′-dihydro-3H-spiro[imidazo[1,2-a]pyridine-2,4′-pyrano[2,3-c]pyridine]], for which the IC50 in assay [1] was 0.164 µM; in assay [2] it was 6.66 µM; in assay [3], 0.013 µM.

Regarding `Fc1c(Cl)ccc2c1OC[C@H](F)[C@@]21CN2C=C(C(F)(F)F)C=C(OC(F)F)C2=N1` [Example 97, (3R,4S)-7-chloro-8′-(difluoromethoxy)-3,8-difluoro-6′-(trifluoromethyl)-3′H-spiro[chromane-4,2′-imidazo[1,2-a]pyridine]], the half-inhibitory concentration (IC50) turned out to be 0.057 µM in assay [1], 0.193 µM in assay [2] and 0.011 µM in assay [3].

For the compound `N#Cc1ccc2c(c1F)CCC[C@@]21CN2C=C(C(F)(F)F)C=C(OC(F)F)C2=N1` [Example 22, (S)-8-(difluoromethoxy)-5′-fluoro-6-(trifluoromethyl)-3′,4′-dihydro-2′H,3H-spiro[imidazo[1,2-a]pyridine-2,1′-naphthalene]-6′-carbonitrile], the IC50 in assay [1] amounted to 0.037 µM; in assay [2], 0.185 µM; in assay [3], 0.008 µM.

On to `Fc1ccc2c(c1F)OCC[C@@]21CN2C=C(C(F)(F)F)C=C(OC(F)F)C2=N1` [Example 45, (S)-8′-(difluoromethoxy)-7,8-difluoro-6′-(trifluoromethyl)-3′H-spiro[chroman-4,2′-imidazo[1,2-a]pyridine]], for which the IC50 was 0.085 µM in assay [1], 0.313 µM in assay [2] and ≤ 0.01 µM in assay [3].

Consider `FC(F)OC1=CC(C(F)(F)F)=CN2C[C@@]3(CCCc4cc(C(F)(F)F)ccc43)N=C12` [Example 86, (S)-8-(difluoromethoxy)-6,6′-bis(trifluoromethyl)-3′,4′-dihydro-2′H,3H-spiro[imidazo[1,2-a]pyridine-2,1′-naphthalene]], for which the IC50 in assay [1] stood at 0.064 µM; in assay [2], 0.179 µM; in assay [3], 0.013 µM.

On to `FC(F)OC1=CC(C(F)(F)F)=CN2C[C@@]3(CCCc4ccccc43)N=C12` [Example 12, (S)-8-(difluoromethoxy)-6-(trifluoromethyl)-3′,4′-dihydro-2′H,3H-spiro[imidazo[1,2-a]pyridine-2,1′-naphthalene]], for which the IC50 turned out to be 0.059 µM in assay [1], 0.25 µM in assay [2] and 0.008 µM in assay [3].
